This is an account of results in patent US20230357419A1, “METHODS FOR TREATING OR […] DISORDERS” (priority 2022, published 2023).

Assay [1] relates to mice. Conditions: intrathecal, 3 μg; cited from earlier work.
Assay [2] has as its system C57BL/6J mice. In words: Repeated nitroglycerin (NTG) administration-induced behavioral sensitization: facial mechanical thresholds (von Frey), hyperalgesic priming, facial pain score. The class given is in vivo, mouse. Conditions: female C57BL/6J. As for the experimental part: Repeated nitroglycerin (NTG) administration-induced behavioral sensitization: To model chronic migraine headache, mice received repetitive intraperitoneal (i.p.) injections of nitric oxide (NO) donor NTG (10 mg/kg and 10 ml/kg in saline with 1% propylene glycol) once every 2 days for 5 times as described previously. The control mice received vehicle (saline with 1% propylene glycol, 10 ml/kg) injections every 2 days. Facial mechanical thresholds were measured at baseline and two days after each injection (before the next treatment). After the facial mechanical threshold returned to the baseline level, mice received daily i.p. injections of low-dose NTG (0.1 mg/kg). Facial mechanical thresholds were measured every 2 days to assess hyperalgesic priming.
The hair on the mouse forehead (above and between the eyes) was shaved the day before testing. […] A positive response was determined by the following criteria as previously described: mouse vigorously stroked its face with the forepaw, head withdrawal from the stimulus, or head shaking. […]
Facial pain score—aversiveness to facial mechanical stimuli: To measure the aversiveness to facial mechanical stimuli, the responses of mice to individual von Frey filaments were scored based on the most aversive behavior they display: 0) no responses; 1) detection: eye squinting, facial skin crinkling and/or a small head shaking; 2) withdrawal: head withdrawal from the filament and/or forepaw stroking of face once; 3) vigorous forepaw stroking of face 2 or more times; and 4) vigorous head shaking and/or attacking the filament.
For C57BL/6J mice, responses were measured to 0.04 gram (g), 0.07 g and 0.16 g von Frey filaments (3 applications each in ascending order). […]
Mice received intraperitoneal (i.p.) injections of NTG (10 mg/kg) or vehicle (saline with 1% propylene glycol, 10 ml/kg) once every 2 days for 5 times as described previously. Facial mechanical thresholds were measured at baseline and two days after each injection. […]

On to `Cc1ccc2c(c1)C1(CCN(CCc3nc(-c4ccccc4)oc3C)CC1)OC(=O)N2` [RS504393], for which, in assay [1], the “tibial fracture/cast immobilization-induced mechanical allodynia” value is on record as “significantly attenuated tibial fracture/cast immobilization-induced mechanical allodynia”. In assay [2] (3 μg in 10 μl under periorbital skin, 30 minutes before and 24 hours post-NTG), the “NTG-induced acute or persistent facial skin hypersensitivity” value was “did not reduce NTG-induced acute or persistent facial skin hypersensitivity”. Moreover, in assay [2] (3 mg/kg i.p., 8 daily injections started after established hypersensitivity, day 5-11), the “facial mechanical threshold (NTG-induced persistent facial skin hypersensitivity)” value is recorded as “returned to basal level after 2 days of RS504393 treatment”. For the same compound, the “hyperalgesic priming (low-dose NTG-induced facial skin hypersensitivity)” value in assay [2] (3 mg/kg i.p., 8 daily injections, low-dose NTG day 20-28) is listed as “low-dose NTG injections still produced robust facial skin hypersensitivity”.
